# Laboratory results from ChEMBL document CHEMBL1777750, “Design strategies to target crystallographic waters applied to the Hsp90 molecular chaperone” (Bioorg Med Chem Lett, 2011).
# Experiments:
# [1] = Displacement of tritium-labeled resorcinol amide ligand from HSP90 by scintillation proximity assay
# [2] = molecular target: Heat shock protein HSP90 (Homo sapiens, UniProt P07900+P08238); experiment: Inhibition of HSP90 in human H1299 cells assessed as degradation of Akt protein after 24 hrs by luminex assay; assay type: cell-based
# [3] = Binding affinity to HSP90 by isothermal titration calorimetry assay
Structure (SMILES),Ki [1] [nM],IC50 [2] [µM],Kd [3] [nM]
COc1cc(-c2nc(C)nc3[nH]cc(Cl)c23)c(Cl)cc1Cl,200,2,–
COc1cc(-c2nc(C)nc3[nH]ccc23)c(Cl)cc1Cl,1700,–,–
COc1cc(-c2nc(C)nc3[nH]c(C)c(Cl)c23)c(Cl)cc1Cl,100,–,–
COc1cc(-c2nc(C)nc3[nH]c(C)c(C#N)c23)c(Cl)cc1Cl,–,0.7,–
COc1cc(-c2nc(C)nc3[nH]c(C)cc23)c(Cl)cc1Cl,2000,–,–
COc1cc(-c2cc(N)nc(C)n2)c(Cl)cc1Cl,10000,–,–
Cc1cc(-c2cccn2C(=O)OC(C)(C)C)nc(N)n1,3700,–,–
COc1cc(-c2cc(C)nc(N)n2)c(Cl)cc1Cl,140,10,–
COc1ccccc1-c1cc(C)nc(N)n1,7900,–,3500
CC(C)(C)OC(=O)n1cccc1-c1cc(Cl)nc(N)n1,300,45,–
CCc1[nH]c2nc(C)nc(-c3cc(OC)c(Cl)cc3Cl)c2c1C#N,15,0.5,–
COc1cc(-c2nc(C)nc3[nH]cc(C(C)=O)c23)c(Cl)cc1Cl,200,–,–
COc1cc(-c2nc(C)nc3[nH]cc(C#N)c23)c(Cl)cc1Cl,–,1,–
Cc1cc(-c2ccccc2)nc(N)n1,22000,> 10,–
Cc1cc(-c2ccc(Cl)cc2Cl)nc(N)n1,350,10.5,104
COc1cc(Cl)ccc1-c1cc(C)nc(N)n1,2700,27,–
COc1cc(-c2nc(C)nc3[nH]cc(F)c23)c(Cl)cc1Cl,200,–,–
